Results on 1 compound are retold here after patent publication US10471054B2, “CDK1 inhibitors of acetyl chrysin mannich base derivatives, synthesis and use thereof” (priority 2016, dated 2019).

Data set [1] concerns PBMCs, activated lymphocytes, human normal Liver cells. Kind of data set: H2O2 level in blood and normal cells, PF1-H2O2 fluorescent probe. It counts as cell-based. The note with it: CH-j: PBMCs and activated lymphocytes; BA-j: activated lymphocyte. As for the experimental part:
The cells are cancer cells (MCF-7, GBC-823, Hep G2) and normal cells (Liver, COS-7, PBMCs). According to the literature [Scientific Reports, 2015, 5: 13626; Anti-cancer Agents in Medicinal Chemistry, 2016, 16: 914-924.], in vitro cultured cells was given to CH-j 25 μM for 3.5 h, added PF1-H2O2 selective fluorescence probe 10 μM for 0.5 h and detected the concentration of H2O2 in cells, and performed fluorescence imaging by results shown in FIG. 1.
FIG. 1-3, FIG. 1-4, The fluorescence imaging by PF1-H2O2 10 μM is that CH-j […] for 4 h affected the level of H2O2 in MCF-7, GBC-823, Hep G2 and Liver.
FIG. 1-3: CH-j/BA-j affects the levels of H2O2 in blood cells, X-coordinate is the concentration of CH-j/BA-j concentration (μM), and Y-coordinate the intracellular levels of H2O2 (μM) for 4 h with PF1-H2O2 10 μM by Fluorescence Microplater Reader (488 nm/525 nm).

For data set [2], the system named is Hep G2. In words: NaOCl level, BODTPY-OCl fluorescent probe imaging. It counts as cell-based. As to conditions: CH-j 40 μM or HCPT 5 μM for 4 h. As for the experimental part:
In vitro cultured Hep G2 was given by BODTPY-OCl selective fluorescent probe 5 μM for 0.5 h, added CH-j 40 μM or HCPT 5 μM for 4 h, and performed fluorescence imaging.

For data set [3], the system named is 5 cancers cells (MCF-7, H-460, BGC-823, PC-3, Hep G2). Kind of data set: Anti-cancer cells proliferation activity, average of 5 cancer cells. In kind it is cell-based. As to conditions: for IC50: average of 5 cancer cells. The source says: Anti-cancer cells proliferationactivity of in vitro CH-j and CH-f were shown in TABLE 2 for the results of the screening of 5 cancers cells.

The test system of data set [4] is BGC-823. Kind of data set: Annexin V-FITC-PI double fluorescence, apoptosis and necrosis. It counts as cell-based. The note with it: 24 h. The source says: There is a series of morphological characteristic changes in the apoptosis of cells, in which the change of the plasma membrane is one of the characteristics of early apoptosis. The cytoplasm is flipped from the inside of the cytoplasm to the outer surface of the cell when the cell apoptosis, Annexin V is a Ca^++ dependent phospholipid binding protein, which has a high affinity with phospholipid-peptide-serine, which can be combined with the phospholipid peptide specificity that is exposed to the extracellular cells. However, cytoplasm transfer to cell membrane is not unique to apoptosis, but also can occur in cell necrosis. The difference between the two cell death modes is that the cell membrane is intact in the initial stage of apoptosis, and the integrity of the cell membrane in its early stage is destroyed. PI is a nucleic acid dye that cannot pass through the intact cell membrane, but in the cell and necrotic cells in the middle and late stage of apoptosis, the PI can dye the nucleus through the cell membrane. Annexin V-FITC-PI was used to detect apoptosis and necrotic cell ratio on flow cytometry.
A relatively small increase in apoptotic cells is increased.
FIG. 3-3 Annexin V-FITC/PI staining results for BGC-823.

The subject of data set [5] is caspase-3, 8, 9. In words: Caspase activity in BGC-823. In kind it is cell-based. As to conditions: range of 0-10 μM, 24 h. The source says:
Caspase is a series of cysteinyl aspartate specific proteinase in the cytoplasm of protease with closely related to cell apoptosis, and participate in cell growth, differentiation and apoptosis regulation. Caspase is same key enzymes in apoptosis process and in the apoptosis of the mediated cells, there are almost all apoptotic signaling pathways involved in the pathway of caspase. […] Caspase-8 is an early starter for the induction of apoptosis, and the caspase-3 is the late executor. Pro-caspase-9 is dissociation with phosphorylation surviving, and inhibiting cell apoptosis and promoting division. Pro-caspase-9 by H2O2 is oxidized into caspase-9-S—S-caspase-9 with inhibiting cell division and inducing apoptosis. H2O2 can directly oxidize and activate caspase, hydrolyze antiapoptotic protein Bcl-2 and Bcl-xl substrate, so selectively induce apoptosis of cancer cells and reduce the damage of normal cells.
FIG. 3-4: caspases: X-coordinate is CH-j concentration (μM) and Y-coordinate the activity of caspase (%) for BGC-823.

The subject of data set [6] is Bcl-2. In words: Bcl-2 expression in MCF-7. It counts as cell-based. As to conditions: 10 μM for 24 h.
Data set [7] deals with HIF-1β. In words: HIF-1β expression in BGC-823, immune-printing. In kind it is cell-based. The note with it: 0, 2.5, 5, 10 μM for 1 h, then insulin. As for the experimental part: BGC-823 was treated with 0, 2.5, 5, 10 μM CH-j for 1 h, then the 2 μM insulin was added, and 2 h were cultured, and the cells were collected and lysed.
FIG. 4: CH-j effect on the HIF-1 of BGC-823 was treated with 0, 2.5, 5, 10 μM CH-j for 1 h, then added 0.2 μM insulin culture for 24 h, and the HIF-1α and HIF-1β were determined by the immune imprinting method.

A short description of data set [8]: Protein binding rate and reversible binding rate. In kind it is in vitro ADME. As to conditions: plasma proteins. The method, then: (§1) The combination of drugs and plasma proteins is usually reversible, and the affinity strength is determined by the reversible binding rate of the drug-protein complex. Only free drugs can spread to the tissue through the lipid membrane. By modifying the structure of the drug, the effect of the drug on the target site can be improved by improving the reversible binding rate of the drug-protein complex.
(§2) The acidic part of polyphenol hydroxyl group is combined with lysine alkaline site in albumin structure. The protein binding rate and reversible binding rate of CH-j see TABLE 2.

Data set [9] deals with plasma proteins. Kind of data set: Protein binding rate and reversible binding rate. It counts as in vitro ADME. The method, then: as §1, §2
Data set [10] has as its target CDK1 (Homo sapiens, UniProt P06493). Kind of data set: CDK1 inhibition activity. It counts as biochemical.

CDK1, sequence (P06493 whole entry, species assumed): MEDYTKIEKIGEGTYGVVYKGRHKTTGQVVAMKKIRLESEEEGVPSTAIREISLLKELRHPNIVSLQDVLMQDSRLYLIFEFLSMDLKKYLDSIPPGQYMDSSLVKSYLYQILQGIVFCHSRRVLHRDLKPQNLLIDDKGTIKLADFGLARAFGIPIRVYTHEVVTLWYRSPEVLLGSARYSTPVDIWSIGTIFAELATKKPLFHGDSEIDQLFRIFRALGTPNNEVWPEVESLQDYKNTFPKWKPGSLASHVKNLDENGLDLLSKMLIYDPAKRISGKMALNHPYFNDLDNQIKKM
CDK1, sequence (P14635 whole entry partner, species assumed): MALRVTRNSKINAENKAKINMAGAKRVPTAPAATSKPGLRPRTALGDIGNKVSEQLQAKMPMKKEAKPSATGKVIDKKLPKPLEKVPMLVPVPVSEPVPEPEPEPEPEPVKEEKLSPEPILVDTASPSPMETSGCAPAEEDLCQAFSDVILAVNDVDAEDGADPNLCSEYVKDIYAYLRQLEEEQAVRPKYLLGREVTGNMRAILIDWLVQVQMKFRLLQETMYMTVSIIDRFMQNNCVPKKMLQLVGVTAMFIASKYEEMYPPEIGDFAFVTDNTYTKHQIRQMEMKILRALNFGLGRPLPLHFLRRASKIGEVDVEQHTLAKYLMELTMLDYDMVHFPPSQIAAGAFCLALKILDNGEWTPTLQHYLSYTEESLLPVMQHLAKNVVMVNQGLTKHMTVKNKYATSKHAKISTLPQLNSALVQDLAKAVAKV

For orientation: IC50 means the point on the concentration scale where inhibition reaches its midpoint. A lower IC50 goes with greater potency. Take `CC(=O)c1c(O)c(CN2CCC(O)CC2)c2oc(-c3ccccc3)cc(=O)c2c1O` [CH-j, 6-Acetyl-5,7-dihydroxy-8-(4-hydroxy-piperidin-1-ylmethyl)-2-phenyl-chromen-4-one]: in [1], the “Dose dependence of H2O2 level” value was “no significant dose-dependent manner”. The “NaOCl, yellow green fluorescence” value in data set [2] was “not present yellow green fluorescence”. Further, the “Anti-proliferative activity, times stronger than BA-j” value in data set [3] amounted to 2 times. For the same compound, in data set [3], the “Anti-proliferative activity, times stronger than Chrysin” value came out at 5 times. In addition, the IC50 in data set [3] is 2.6 µg/mL; in data set [3] (MTT, 48 h) it was 6.3 µM. Moreover, in [4], the “Apoptosis and necrosis by Annexin V-FITC-PI” value is on record as “induce apoptosis the BGC-823 with obvious dose-dependent manner”. Besides, the “Activation of caspase-3, 8, 9” value in [5] is reported as “activated caspase-3, 8, 9 both in a dose-dependent upward trend”. In data set [6], the Bcl-2 expression result was “Bcl-2 expression can be suppressed”. Further, the HIF-1β expression result in data set [7] is on record as “without affecting the expression of HIF-1β”. Besides, the fraction unbound in [8] (average of 3 concentrations, read-out: Protein binding rate AV (converted)) was 0.14. The fraction unbound at 12.5 μg/ml in [8] (drug concentration 12.5 μg/ml) was 0.114. In addition, the fraction unbound at 25 μg/ml in [8] (drug concentration 25 μg/ml) is 0.156. For the same compound, the fraction unbound at 50 μg/ml in [8] (drug concentration 50 μg/ml) was 0.151. Further, the “Reversie binding rate AV” value in data set [9] (average of 3 concentrations) is given as 90.0%. Further, the results for the Reversie binding rate in data set [9] (drug concentration 12.5 μg/ml), in [9] (drug concentration 25 μg/ml) and in [9] (drug concentration 50 μg/ml) were 90.3%, 89.6% and 90.1%, respectively. Besides, the “CDK1 inhibition, times stronger than BA-j” value in [10] is “about 2 times”. Besides, the CDK1 50% inhibitory concentration in data set [10] (read-out: inhibiting CDK1 CC50) was 150 nM.
